# Measured values reported in PMC9818267, “Brain Natriuretic Peptide Protects Cardiomyocytes from Apoptosis and Stimulates Their Cell Cycle Re-Entry in Mouse Infarcted Hearts” (Cells, 2022).
# No end group written: not given here.
# Experiments:
# [1] = system: ERK; assay: Western blot pERK/ERK in CMs isolated from BNP-treated hearts; assay type: in vivo, mouse; conditions: CMs isolated from BNP-treated adult unmanipulated hearts (injection 2–3 h before isolation), vs saline
# Procedure: (§1) BNP was injected into infarcted adults, and unmanipulated neonatal and adult mice. Directly after surgery, NaCl (saline) or BNP (1.3 µg/20 g in 20 µL) was injected into the left ventricle cavity. At 24 h after MI, mice were intraperitoneal (ip) injected with BNP (2 µg/20 g mice) or saline every 2 days. C57BL/6 mice were sacrificed 1- and 14 days post-MI and Myh6 MerCreMer mice were sacrificed 14 days post-MI (Figure 1A). Neonatal C57BL/6 mice (3 days after birth) were injected ip with NaCl or BNP every two days (1 µg/2 g; Bachem; synthetic mouse BNP (1–45) peptide (catalog number H-7558)). Mice were sacrificed 11 days after birth (Figure 1B). Eight week old C57 BL/6 mice or Myh6 MerCreMer unmanipulated mice were injected ip with BNP (2 µg/20 g mice) or NaCl every two days (Figure 1C). Two weeks after the first injection, mice were sacrificed. To assess for the implication of the ERK signaling pathway in the BNP effect on CMs, PD0325901 (60 µg/20 g mice in 80 µL) was administered by gavage in adult unmanipulated mice 1 h before BNP injection (2 µg/20 g mice).
# CM isolations were performed thanks to the Langendorff-Free method. […]
# Total proteins were extracted from CMs isolated from adult infarcted and unmanipulated neonatal and adult hearts. […] The signal was detected and quantified with the Odyssey infrared imaging system (LI-COR. Biosciences, Bad Homburg, Germany). […]
# [2] = system: DAPI+ Troponin I+ cells; assay: Flow cytometry of apoptotic CMs (DAPI+ Troponin I+ cells) after isolation; assay type: in vivo, mouse; conditions: CMs isolated from adult hearts injected during 2 weeks with BNP; saline 3.5 ± 0.5%
# [3] = system: phospholamban (PLB); assay: Western blot pPLB/PLB in CMs isolated from BNP-injected hearts; assay type: in vivo, mouse; conditions: vs saline
# Procedure: as §1
# CM isolations were performed thanks to the Langendorff-Free method. […] Thereafter, the heart was removed from the chest and the left ventricle was perfused with enzymatic solution containing collagenase II (120 U/mL), collagenase IV (120 U/mL) (Worthington, Biochemical Corporation, USA) and protease XIV (0.05 mg/mL or 0.175 U/mL) (Sigma-Aldrich, Merck, Darmstadt, Germany). In each experiment, a full digestion of the heart was obtained. After digestion, cardiac cells were dissociated by gentle pipetting, filtered and collected after 25 min sedimentation. For infarcted hearts, the tissue was separated into the three zones (ZI, BZ and RZ). The three different areas were weighted before gentle pipetting.
# Total proteins were extracted from CMs isolated from adult infarcted and unmanipulated neonatal and adult hearts. Proteins were transferred to nitrocellulose membranes (Biorad) before incubation with primary antibodies overnight at 4 °C. Secondary antibodies were added 1 h at RT in the dark (Supplementary File S1). The signal was detected and quantified with the Odyssey infrared imaging system (LI-COR. Biosciences, Bad Homburg, Germany). All results were normalized to the tubulin protein level or to the total protein level thanks to stainings with the Revert 700 Total protein Stain (LI-COR).
# [4] = system: Troponin I+ GFP+ cells; assay: Flow cytometry count of Troponin I+ GFP+ cells in Myh6 MerCreMer hearts; assay type: in vivo, mouse; conditions: unmanipulated adult Myh6 MerCreMer mice, tamoxifen then BNP, two weeks after first BNP injection, vs saline
# Procedure: Before surgery and/or BNP treatments, adult Myh6 MerCreMer mice (6-week-old) were injected with Tamoxifen (Sigma, Merck, Darmstadt, Germany, T5648) at 40 mg/kg to activate the Cre recombinase. Tamoxifen was dissolved in ethanol to a concentration of 100 mg/mL and emulsified in peanut oil to a final concentration of 10 mg/mL. A total of 1 mg Tamoxifen/25 g body weight was injected intraperitoneally (i.p) to adult mice one time. Two weeks after tamoxifen injection, 90–95% of pre-existing CMs expressed the GFP protein [11].
# BNP was injected into infarcted adults, and unmanipulated neonatal and adult mice. Directly after surgery, NaCl (saline) or BNP (1.3 µg/20 g in 20 µL) was injected into the left ventricle cavity. At 24 h after MI, mice were intraperitoneal (ip) injected with BNP (2 µg/20 g mice) or saline every 2 days. C57BL/6 mice were sacrificed 1- and 14 days post-MI and Myh6 MerCreMer mice were sacrificed 14 days post-MI (Figure 1A). […]
# Adult CMs were isolated using enzymatic digestion (see above). […] Cells were analyzed with CytoFLEX (Beckmann Coulter) cytometer and data generated using FlowJo 10 software (10.7.1 version, Becton Dickinson and Compagny, Franklin Lakes, NJ, USA). […] Cells were stained with DAPI and only the DAPI negative cells (living cells) were analyzed.
# [5] = rats with myocardial damage; cited from earlier work
substance,measurement,setting,value
"Brain Natriuretic Peptide (SQGSTLRVQQRPQNSKVTHISSCFGHKIDRIGSVSRLGCNALKLL; not fully specified; ends and bridges not checked; UniProt P40753 77-121, looked up) [BNP, synthetic mouse BNP (1–45) peptide (Bachem, catalog number H-7558)]",pERK/ERK ratio increase,[1],1.6 ×
same,percentage of DAPI+ CMs,[2],4 ± 1%
same,pPLB/PLB ratio change,[3]; CMs from remote zone (RZ) of infarcted hearts after BNP injections,−32%
same,pPLB/PLB ratio increase,[3]; CMs from unmanipulated adult hearts after BNP injections (2–3 h before CM isolation),1.5 ×
same,pPLB/PLB ratio increase,[3]; CMs from unmanipulated neonatal hearts after BNP injections,3.5 ×
same,pPLB/PLB ratio increase,[3]; CMs isolated from border zone (BZ) of infarcted hearts after BNP injections,2.7 ×
same,increase of number of Troponin I+ GFP+ cells,[4],28%
same,half-life,[5],about 1.2 min
